Key:
[1] = system: patients with advanced solid tumors; test: Phase I 3+3 dose escalation: DLT, MTD and recommended dose; conditions: in vivo, iv
[2] = background statement, no reference given, cited from earlier work
[3] = single agent in a phase I trial; cited from earlier work

Cilengitide
recommended dose of cilengitide for subsequent study (recommended phase II dose) [1]: 2000 mg | route of clearance [2]: predominantly renally cleared | terminal half-life [2]: 3 to 5 h | minimum washout ([2]; estimated): 24 h | maximum tolerated dose (MTD), single agent [3]: not reached

Source: article PMC9594487 (Cancer chemotherapy and pharmacology, 2017)
